In patent US20240418626A1, “METHOD, DEVICE, AND SYSTEM FOR CELL IDENTIFICATION” (Ruixin (Fuzhou) Technology Co., Ltd., priority 2021, published 2024):

Tests used:
Assay type in all cases: cell-based
[1] = test system: Breast cancer cells MCF-7 tumor cell aggregates; experiment: 5-Fu drug sensitivity of tumor cell aggregates on the cellular traction force detection device; details: MCF-7 aggregates, 200 μM, cultured for one day, FIGS. 13A and 13B
Description: S1, Generation of tumor cell aggregates: FN 50 μg/mL is coated on the top of the micro-/nano-pillars of the cellular traction force detection device and sterilized with UV light for 30 minutes. Breast cancer cells MCF-7 (approximately 1×10^5 to 9×10^5 cells) are seeded on the surface of the micro-/nano-pillars of the cellular traction force detection device (number of micro-/nano-pillars not limited) and then cultured in 3dGRO™ Spheroid Medium (S3077) for more than three days to guide the formation of tumor cell aggregates.
S2, Applying the generated tumor cell aggregates to 5-Fu drug sensitivity experiments: 200 μM of 5-Fu is added to the tumor cell aggregates and cultured for one day. In the experiment, cellular traction force detection devices with tumor cell aggregates (along with the culture medium) before and after the addition of 5-Fu are monitored using the information acquisition unit (CCD sensor) within the cellular identification device to capture light reflection signals.

[2] = test system: A549 cells; experiment: Cell vitality reflected by cellular traction force in A549 cells treated with 5-FU; details: for time of significant decrease in cellular traction force: FIG. 11C
Description: (§1) Specifically, in the present embodiment, non-small cell lung cancer A549 cells are cultured on multiple cellular traction force detection devices, and then are treated with various doses of cell proliferation inhibitor 5-fluorouracil (5-FU). Subsequently, the cellular traction forces at different time are monitored by using the cellular identification system described in the twentieth embodiment. Cell proliferation and cytotoxicity are monitored using the CCK-8 kit, with cell vitality measured by the MTT assay serving as a control group, yielding the data for FIGS. 11B and 11C.

[3] = test system: A549 cells; experiment: Cell vitality by MTT assay in A549 cells treated with 5-FU
Description: as §1

[4] = various doses of 5-FU, FIGS. 11B and 11C

**Q.** Which “reflection signals of tumor cell aggregates after treatment” value [1] does the source give for O=c1[nH]cc(F)c(=O)[nH]1 [5-FU, 5-fluorouracil] here?
**A.** significantly weaken

**Q.** And the “time of significant decrease in cellular traction force” value ([2]; 0.5 μM treatment dose)?
**A.** 6 h

**Q.** And the “time of significant decrease in cellular traction force” value ([2]; 1 μM treatment dose)?
**A.** 3 h

**Q.** What about the “cellular vitality as reflected by traction forces compared to control group DMSO” value ([2]; different doses, treatment for 24 hours, FIG. 11B) of the same molecule?
**A.** decreases more significantly

**Q.** What about the “cell vitality reflected by cellular traction forces” value [2, 4] of the same molecule?
**A.** dose-dependent decrease

**Q.** And the “changes in cell vitality measured by the MTT assay” value ([3]; after 12 hours of treatment, FIG. 11C)?
**A.** not noticeable

**Q.** What about the “cell vitality measured by the traditional MTT assay” value [3, 4] of the same molecule?
**A.** dose-dependent decrease
